The record followed here is ChEMBL document CHEMBL1134299, “Conformationally constrained analogues of diacylglycerol. 18. The incorporation of a hydroxamate moiety into diacylglycerol-lactones reduces lipophilicity and helps discriminate between sn-1 and sn-2 binding modes to protein kinase C (PK-C). Implications for isozyme specificity” (J Med Chem, 2001).

Data set [1] is described as follows: Partition coefficient (logP). Format: physicochemical. The settings on record: octanol/water.
Data set [2] has as its target Protein kinase C alpha type (Homo sapiens, UniProt P17252). Nature of the data set: Displacement of [20-3H]-PDBU ligand from recombinant protein kinase C (baculovirus).

`CC(C)CC(C/C=C1\CC(CO)(CNC(=O)C(C)(C)C)OC1=O)CC(C)C` (stereo not given): the lipophilicity (logP) in data set [1] is 3.95. Besides, in data set [2], the inhibition constant (Ki) stood at 1260 nM.

On to `CC(C)CC(C/C=C1/CC(CO)(CN(O)C(=O)C(C)(C)C)OC1=O)CC(C)C` (stereo not given), for which the log partition coefficient (logP) in data set [1] turned out to be 3.58. In addition, the inhibitory constant (Ki) in data set [2] is 5.42 nM.

In data set [1], `CC(C)CC(C/C=C1\CC(CO)(COC(=O)C(C)(C)C)OC1=O)CC(C)C` (stereo not given) had a logP of 5.03. For the same molecule, the Ki in data set [2] was 4.51 nM.

Turning to `CC(C)C(C/C=C1/CC(CO)(COC(=O)CC(C(C)C)C(C)C)OC1=O)C(C)C` (stereo not given), the log partition coefficient (logP) in data set [1] was determined as 5.89.

In data set [1], `CC(C)CC(C/C=C1/CC(CO)(CNC(=O)C(C)(C)C)OC1=O)CC(C)C` (stereo not given) had a lipophilicity (logP) of 3.95. In data set [2], the inhibitory constant (Ki) worked out at 430 nM.

In data set [1], `CC(C)CC(C/C=C1/CC(CO)(COC(=O)CC(C(C)C)C(C)C)OC1=O)CC(C)C` (stereo not given) registered a logP of 6.88. The Ki in data set [2] is 6.87 nM.

Regarding `CC(C)C(C/C=C1/CC(CO)(COC(=O)C(C)(C)C)OC1=O)C(C)C` (stereo not given), the inhibition constant (Ki) in data set [2] came out at 8.32 nM.

For `CC(C)CC(C/C=C1/CC(CO)(COC(=O)C(C)(C)C)NC1=O)CC(C)C` (stereo not given), the lipophilicity (logP) in data set [1] came to 5.01. In addition, the inhibition constant (Ki) in data set [2] came out at 4330 nM.

`CC(C)CC(C/C=C1\CC(CO)(CN(O)C(=O)C(C)(C)C)OC1=O)CC(C)C` (stereo not given) registered a log partition coefficient (logP) in data set [1] of 3.58. For the same molecule, in data set [2], the Ki was 4.81 nM.

As for `CC(C)C(C/C=C1\CC(CO)(COC(=O)CC(C(C)C)C(C)C)OC1=O)C(C)C` (stereo not given), in data set [1], the logP came out at 5.89.

In data set [1], `CC(C)CC(C/C=C1/CC(CO)(COC(=O)C(C)(C)C)OC1=O)CC(C)C` (stereo not given) yielded a log partition coefficient (logP) of 5.03. In data set [2], the Ki came to 2.9 nM.

With `CC(C)CC(C/C=C1\CC(CO)(COC(=O)C(C)(C)C)NC1=O)CC(C)C` (stereo not given), the logP in data set [1] is 5.01. The Ki in data set [2] came out at 4840 nM.

As to `CC(C)C(C/C=C1\CC(CO)(COC(=O)C(C)(C)C)OC1=O)C(C)C` (stereo not given), the Ki in data set [2] came to 11.2 nM.

As for `CC(C)CC(C/C=C1\CC(CO)(COC(=O)C(C)(C)C)N(O)C1=O)CC(C)C` (stereo not given), the Ki in data set [2] was determined as 10400 nM.

As for `CC(C)CC(C/C=C1\CC(CO)(COC(=O)CC(C(C)C)C(C)C)OC1=O)CC(C)C` (stereo not given), the lipophilicity (logP) in data set [1] is 6.88. For the same molecule, the Ki in data set [2] was 4.46 nM.
